Source: PMC11304990, “Identification of mitochondrial ATP synthase as the cellular target of Ru-polypyridyl-β-carboline complexes by affinity-based protein profiling” (National Science Review, 2024)
One block for each compound: values may come before it.

What was measured:
[1] = Aqueous solubility by concentration-absorbance linearity; type: physicochemical; conditions: PBS with 1% DMSO
Source text: Subsequently, the lipophilicity and aqueous solubility of Ru1–Ru9 were investigated.

[2] = test system: lung adenocarcinoma (A549); assay: MTT antiproliferative assay, A549; type: cell-based, human; conditions: for SI (selectivity index): SI = (IC50 for HLF)/(IC50 for A549); for IC50: 72 h
Source text: (§1) Ru3–Ru9 also show a certain selectivity for cancer cells over normal cells, and Ru2, Ru3, Ru5 and Ru9 show higher selectivity index (SI) values than the other complexes.
(§2) PA-BPP was then used to confirm the molecular targets of Ru5 by modifying it with a ‘minimalist’ biorthogonal handle-containing photo-cross-linker. Through our structure–activity relationship analysis and comparison with other ruthenium complexes utilizing phen as the auxiliary ligands with similar coordination structures (using cisplatin as a control), we propose that the β-carboline ligands play an important role in antiproliferative activity. To maintain the binding characteristics of the β-carboline moiety with the targeted biomolecules, we linked the photo-cross-linker to one of the auxiliary ligands of Ru5.

[3] = test system: cervical carcinoma (HeLa); assay: MTT antiproliferative assay, HeLa; type: cell-based, human; conditions: 72 h
Source text: as §1, §2

[4] = test system: cisplatin-resistant A549R; assay: MTT antiproliferative assay, A549R; type: cell-based, human; conditions: 72 h
Source text: as §1, §2

[5] = test system: A549 xenograft; assay: A549 xenograft nude mice model; type: in vivo; conditions: 5 mg kg−1, intratumoral injection every 7 days, 14 days, compared with the control groups
Protocol: Lastly, the in vivo anticancer activity of Ru5 was assessed via a A549 xenograft nude mice model (Fig. 5A). Mice were treated with PBS, cisplatin (5 mg kg^−1) or Ru5 (5 mg kg^−1) for 14 days, during which body weights and tumor volumes were monitored.
Figure 5. […] (A) Schematic illustration of in vivo therapeutic protocol. (B) Graphs of tumor volumes of nude mice after treatment with Ru5 (5 mg kg^−1), cisplatin (5 mg kg^−1) and PBS. The intratumoral injections were performed every 7 days. Data are presented as means ± SD, n = 5. (C) Immunohistochemical analysis of hematoxylin-eosin (H&E) staining in tumor sections from mice with different treatments. Scale bar: 50 μm. (D) Tumors separated from nude mice. (E) The average body weight of the mice in each group during the treatment process. Data are presented as means ± SD, n = 5. (F) H&E staining of the main organs from mice with different treatments. Scale bar: 100 μm.

[6] = test system: malignant glioma (U87); assay: MTT antiproliferative assay, U87; type: cell-based, human; conditions: 72 h
Source text: as §1, §2

[7] = test system: human lung fibroblast-like (HLF) cells; assay: MTT antiproliferative assay, HLF; type: cell-based; conditions: 72 h
Source text: as §1, §2

[8] = test system: prostate cancer (PC3); assay: MTT antiproliferative assay, PC3; type: cell-based, human; conditions: 72 h
Source text: as §1, §2

[9] = test system: triple negative breast cancer (MDA-MB-231); assay: MTT antiproliferative assay, MDA-MB-231; type: cell-based, human; conditions: 72 h
Source text: as §1, §2

[10] = test system: A549 cells; assay: Anticancer activity in wild type vs ATPase siRNA knockdown cells; type: cell-based, human; conditions: compared to wild-type cells
Protocol: (§3) Figure 1. Validation of ATP5F1 as the molecular target of Ru5. (A) Proteins pulled down by streptavidin from A549 cells treated with Ru5a followed by PAL. The cells were treated with Ru5a (50 μM) for 12 h and irradiated with UV light for 20 min. (B) The top five peptides enriched by Ru5a-mediated PAL were identified with the assistance of SILAC-based chemoproteomic studies. H1F0: H1 histone family member 0; HIST4H4: histone cluster 4 H4; HIST3H2BB: histone cluster 3 H2B family member b; ATP5F1E: ATP synthase F1 subunit epsilon; HIST1H2AJ: histone cluster 1 H2A family member J. (C) Pull-down western blotting analysis of ATPase in A549 cells treated with Ru5a. (D) Cellular Ru content in cells treated with Ru5/Ru5a (20 μM, 12 h) measured by ICP-MS. (E) Impact of Ru5/Ru5a (10 μM) on the thermal stability of ATP5F1 measured by CETSA. (F) Impact on the anticancer activities of Ru5/Ru5a against wild type and ATPase knocking down (by siRNA) A549 cells. The relative cellular viability was calculated using the cells without drug treatment in each group as the control group. (G) Inhibition of Ru5/Ru5a on the enzymatic activity of ATPase. (-)-blebbistatin was used as the positive control. (H) Molecular docking of Ru5 with ATPase (PDB: 3ZIA). The red dashes indicate the hydrogen bonds formed between Ru5 and the amino acid residues (SER38 and GLN39). […]

[11] = test system: ATP5F1; assay: Cellular thermal shift assay (CETSA); type: cell-based; conditions: 10 μM
Protocol: as §3

[12] = test system: mitochondria; assay: Subcellular Ru content by ICP-MS; type: cell-based; conditions: 20 μM, 12 h
Protocol: as §3

[13] = biological target: ATPase (mitochondrial ATP synthase); assay: Inhibition of the enzymatic activity of ATPase in vitro; type: biochemical; conditions: read-out: Inhibition constant (Ki)
Protocol: as §3, with “GLN39). The yellow dashes indicate the hydrophobic interaction between Ru5 and the amino acid residues (ASN15 and GLN19). Data are presented as means ± SD from three independent experiments. TEXT PRINTED IN THE PICTURE: (B) Ru5a: Log2 (fold change) (Ru5a/DMSO): 1.43 (Protein name: H1F0); Log2 (fold change) (Ru5a/DMSO): 1.23 (Protein name: HIST4H4); Log2 (fold change) (Ru5a/DMSO): 1.22 (Protein name: HIST3H2BB); Log2 (fold change) (Ru5a/DMSO): 1.21 (Protein name: ATP5F1E); Log2 (fold change) (Ru5a/DMSO): 1.12 (Protein name: HIST1H2AJ) DOUBTS OF THE COPYIST ABOUT THIS PICTURE: Panel B: the table rows are proteins enriched by Ru5a, not separate substances.” for “GLN39).”

Highest solubility [1]: lower than 40 μM
Compound: F[P-](F)(F)(F)(F)F.F[P-](F)(F)(F)(F)F.[Ru+2].c1ccc(-c2ccnc3c2ccc2c(-c4ccccc4)ccnc23)cc1.c1ccc(-c2ccnc3c2ccc2c(-c4ccccc4)ccnc23)cc1.c1ccc2[nH]c(-c3nccc4c3[nH]c3ccccc34)nc2c1 [Ru9]
SI (selectivity index) [2]: higher

Compound: N.N.[Cl][Pt][Cl] [Cisplatin, reference compound]
IC50 [3]: 10.3 ± 1.3 µM | IC50 [4]: 28.1 ± 4.2 µM | Tumor growth inhibitory rate [5]: ~74.4% | IC50 [2]: 5.9 ± 1 µM | SI (selectivity index) [2]: 2.6 | IC50 [6]: 14.8 ± 1.2 µM | IC50 [7]: 15.4 ± 1.1 µM | IC50 [8]: 13.1 ± 2.7 µM | IC50 [9]: 9 ± 0.2 µM

Highest solubility [1]: lower than 40 μM
Compound: F[P-](F)(F)(F)(F)F.F[P-](F)(F)(F)(F)F.[Ru+2].c1ccc(-c2ccnc3c2ccc2c(-c4ccccc4)ccnc23)cc1.c1ccc(-c2ccnc3c2ccc2c(-c4ccccc4)ccnc23)cc1.c1ccc2nc(-c3nccc4c3[nH]c3ccccc34)ccc2c1 [Ru3]
SI (selectivity index) [2]: higher

Linear relationship between absorbance and concentration up to [1]: at least 100 μM
Compound: F[P-](F)(F)(F)(F)F.F[P-](F)(F)(F)(F)F.[Ru+2].c1ccc2[nH]c(-c3nccc4c3[nH]c3ccccc34)nc2c1.c1cnc2c(c1)ccc1cccnc12.c1cnc2c(c1)ccc1cccnc12 [Ru8]

IC50 [3]: 3.8 ± 0.1 µM | IC50 [4]: 4.2 ± 0.6 µM | Subcellular location (cellular Ru content) [12]: mainly located in mitochondria | Ki [13]: 8.1 ± 1.5 µM | IC50 [2]: 2.5 ± 0.4 µM | IC50 [6]: 13.4 ± 0.4 µM | IC50 [8]: 3.4 ± 0.6 µM | IC50 [9]: 8.4 ± 0.6 µM
Compound: C#CCCC1(CCNC(=O)c2cc3cccnc3c3ncccc23)N=N1.F[P-](F)(F)(F)(F)F.F[P-](F)(F)(F)(F)F.[Ru+2].c1ccc2c(c1)[nH]c1c(-c3ncc[nH]3)nccc12.c1cnc2c(c1)ccc1cccnc12 [Ru5a]
Effect of siRNA-mediated knockdown of ATPase on anticancer effects [10]: alleviates | Thermal stability of ATP5F1 [11]: increased | SI (selectivity index) [2]: 9.3 | IC50 [7]: 23.2 ± 0.3 µM

Linear relationship between absorbance and concentration up to [1]: at least 100 μM
Compound: F[P-](F)(F)(F)(F)F.F[P-](F)(F)(F)(F)F.[Ru+2].c1ccc2nc(-c3nccc4c3[nH]c3ccccc34)ccc2c1.c1cnc2c(c1)ccc1cccnc12.c1cnc2c(c1)ccc1cccnc12 [Ru2]
SI (selectivity index) [2]: higher

Ki [13]: 3.3 ± 0.5 µM
Compound: Cc1ccc2c(c1)C(=O)C1(O)CCN(c3ccccc3)C1=N2 (single isomer, unassigned; (-)) [(-)-blebbistatin, reference compound]

Highest solubility [1]: lower than 40 μM
Compound: F[P-](F)(F)(F)(F)F.F[P-](F)(F)(F)(F)F.[Ru+2].c1ccc(-c2ccnc3c2ccc2c(-c4ccccc4)ccnc23)cc1.c1ccc(-c2ccnc3c2ccc2c(-c4ccccc4)ccnc23)cc1.c1ccc2c(c1)[nH]c1c(-c3ncc[nH]3)nccc12 [Ru6]
